In patent US6124269A, “2-Halo-6-O-substituted ketolide derivatives” (priority 1998, dated 2000):
Values after ≈ are worked out from the molar mass of the structure shown.

How the values were obtained:
Assay type in all cases: cell-based
[1] = test system: Staphylococcus epidermidis 3519; assay: In vitro agar dilution MIC, organism code HH; conditions: Table 1B, in µg/mL (unit assumed)
Method in brief: (§1)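 Twelve-plate agar dilution series in Brain Heart Infusion agar. Inoculum diluted 1:100, or 1:10 for streptococci and other slow growers. Read after 20 to 24 hours at 35-37° C.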

[2] = test system: Enterococcus faecium ATCC 8043; assay: In vitro agar dilution MIC, organism code II; conditions: Table 1B, unit assumed
Method in brief: as §1

[3] = test system: Staphylococcus aureus A-5278; assay: In vitro agar dilution MIC, organism code CC; conditions: unit assumed
Method in brief: as §1

[4] = test system: Streptococcus pneumoniae GYR 1171; assay: In vitro agar dilution MIC, organism code YY; conditions: Table 1B, unit assumed
Method in brief: as §1

[5] = test system: Nocardia asteroides ATCC 9970; assay: In vitro agar dilution MIC, organism code VV; conditions: Table 1B, in µg/mL (unit assumed)
Method in brief: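 Agar dilution was run in BHI agar with twelve serial compound dilutions, using a replicator-spotted 1:100 inoculum (1:10 for streptococci). Plates were incubated 20-24 h at 35-37 °C with erythromycin A as class control. MIC was the lowest concentration giving no growth, slight haze or sparse colonies.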

[6] = test system: Staphylococcus aureus ATCC 6538P; assay: In vitro agar dilution MIC, organism code AA; conditions: unit assumed
Method in brief: as §1

[7] = test system: Staphylococcus aureus 1775; assay: In vitro agar dilution MIC, organism code GG; conditions: Table 1B, unit assumed
Method in brief: as §1

[8] = test system: Streptococcus pyogenes EES61; assay: In vitro agar dilution MIC, organism code LL; conditions: unit assumed
Method in brief: as §1

[9] = test system: Haemophilis influenzae DILL AMP R; assay: In vitro agar dilution MIC, organism code WW; conditions: unit assumed
Method in brief: as §1

[10] = test system: Mycobacterium smegmatis ATCC 114; assay: In vitro agar dilution MIC, organism code UU; conditions: Table 1B, in µg/mL (unit assumed)
Method in brief: as §1

[11] = test system: Staphylococcus aureus CMX 553; assay: In vitro agar dilution MIC, organism code FF; conditions: Table 1B, unit assumed
Method in brief: as §1

[12] = test system: Micrococcus luteus ATCC 4698; assay: In vitro agar dilution MIC, organism code PP; conditions: Table 1B, in µg/mL (unit assumed)
Method in brief: as §1

[13] = test system: Staphylococcus aureus A5177; assay: In vitro agar dilution MIC, organism code BB; conditions: in µg/mL (unit assumed)
Method in brief: as §1

[14] = test system: Streptococcus agalactiae CMX 508; assay: In vitro agar dilution MIC, organism code KK; conditions: Table 1B, unit assumed
Method in brief: as §1

[15] = test system: Escherichia coli SS; assay: In vitro agar dilution MIC, organism code RR; conditions: Table 1B, in µg/mL (unit assumed)
Method in brief: as §1

[16] = test system: Streptococcus pyogenes 930; assay: In vitro agar dilution MIC, organism code MM; conditions: unit assumed
Method in brief: as §1

[17] = test system: Streptococcus bovis A-5169; assay: In vitro agar dilution MIC, organism code JJ; conditions: Table 1B, unit assumed
Method in brief: as §1

[18] = test system: Micrococcus luteus ATCC 9341; assay: In vitro agar dilution MIC, organism code OO; conditions: Table 1B, unit assumed
Method in brief: as §1

[19] = test system: Streptococcus pneumoniae 5649; assay: In vitro agar dilution MIC, organism code ZZA; conditions: unit assumed
Method in brief: as §1

[20] = test system: Escherichia coli DC-2; assay: In vitro agar dilution MIC, organism code SS; conditions: Table 1B, unit assumed
Method in brief: as §1

[21] = test system: Streptococcus pyogenes PIU 2548; assay: In vitro agar dilution MIC, organism code NN; conditions: Table 1B, unit assumed
Method in brief: as §1

[22] = test system: Candida albicans CCH 442; assay: In vitro agar dilution MIC, organism code TT; conditions: Table 1B, unit assumed
Method in brief: as §1

[23] = test system: Streptococcus pneumoniae 5979; assay: In vitro agar dilution MIC, organism code ZZ; conditions: unit assumed
Method in brief: as §1

[24] = test system: Staphylococcus aureus CMX 642A; assay: In vitro agar dilution MIC, organism code DD; conditions: Table 1B, unit assumed
Method in brief: as §1

[25] = test system: Staphylococcus aureus NCTC10649M; assay: In vitro agar dilution MIC, organism code EE; conditions: Table 1B, unit assumed
Method in brief: as §1

[26] = test system: Streptococcus pneumoniae ATCC 6303; assay: In vitro agar dilution MIC, organism code XX; conditions: unit assumed
Method in brief: as §1

[27] = test system: Escherichia coli JUHL; assay: In vitro agar dilution MIC, organism code QQ; conditions: Table 1B, in µg/mL (unit assumed)
Method in brief: as §1

Structure (SMILES) | MIC [1] | MIC [2] [µg/mL] | MIC ([3]; Table 1B) [µg/mL] | MIC [4] [µg/mL] | MIC [5] | MIC ([6]; Table 1B) [µg/mL] | MIC [7] [µg/mL] | MIC ([8]; Table 1B) [µg/mL] | MIC ([9]; Table 1B) [µg/mL] | MIC [10] | MIC [11] [µg/mL] | MIC [12] | MIC ([13]; Table 1B) | MIC [14] [µg/mL] | MIC [15] | MIC ([16]; Table 1B) [µg/mL] | MIC [17] [µg/mL] | MIC [18] [µg/mL] | MIC ([19]; Table 1B) [µg/mL] | MIC [20] [µg/mL] | other results
CC[C@H]1OC(=O)C(C)(Br)C(=O)[C@H](C)[C@@H](O[C@@H]2O[C@H](C)C[C@H](N(C)C)[C@H]2O)[C@](C)(OC)C[C@@H](C)C2=NCCN3C(=O)O[C@@]1(C)[C@H]3[C@H]2C (stereo partly shown) [Example 3] | 0.39 | 0.1 (≈ 0.14 µM) | > 100 | 0.125 (≈ 0.174 µM) | 0.39 | 0.39 (≈ 0.544 µM) | > 100 | 0.05 (≈ 0.0698 µM) | 8 (≈ 11.2 µM) | 1.56 | 0.39 (≈ 0.544 µM) | 0.39 | 0.39 | 0.2 (≈ 0.279 µM) | 0.39 | > 100 | 0.2 (≈ 0.279 µM) | 0.05 (≈ 0.0698 µM) | 2 (≈ 2.79 µM) | > 100 | MIC ([3]; Table 1C): > 100 µg/mL; MIC ([6]; Table 1C): 0.78 µg/mL (≈ 1.09 µM); MIC ([8]; Table 1C): < 0.125 µg/mL; MIC ([9]; Table 1C): 8 µg/mL (≈ 11.2 µM); MIC ([13]; Table 1C): 0.78; MIC ([16]; Table 1C): 128 µg/mL (≈ 179 µM); MIC ([19]; Table 1C): 1 µg/mL (≈ 1.4 µM); MIC [21]: 0.39 µg/mL (≈ 0.544 µM); MIC [22]: > 100 µg/mL; MIC ([23]; Table 1C): > 128 µg/mL; MIC [24]: 0.39 µg/mL (≈ 0.544 µM); MIC [25]: 0.39 µg/mL (≈ 0.544 µM); MIC ([26]; Table 1C): 0.25 µg/mL (≈ 0.349 µM); MIC [27]: > 100
CC[C@H]1OC(=O)[C@@](C)(F)C(=O)[C@H](C)[C@@H](O[C@@H]2O[C@H](C)C[C@H](N(C)C)[C@H]2O)[C@](C)(OC/C=C/c2cnc3ccc(C=NO)cc3c2)C[C@@H](C)C(=O)[C@H](C)[C@H]2NC(=O)O[C@@]21C [Example 18] | 0.05 | 0.02 (≈ 0.0242 µM) | 50 (≈ 60.5 µM) | 0.015 (≈ 0.0181 µM) | 0.01 | 0.02 (≈ 0.0242 µM) | 50 (≈ 60.5 µM) | ≤ 0.005 | 2 (≈ 2.42 µM) | 0.78 | 0.05 (≈ 0.0605 µM) | 0.02 | 0.05 | 0.01 (≈ 0.0121 µM) | 0.2 | 0.2 (≈ 0.242 µM) | ≤ 0.005 | 0.01 (≈ 0.0121 µM) | 0.25 (≈ 0.302 µM) | 50 (≈ 60.5 µM) | MIC [21]: 0.02 µg/mL (≈ 0.0242 µM); MIC [22]: > 100 µg/mL; MIC ([23]; Table 1B): 0.25 µg/mL (≈ 0.302 µM); MIC [24]: 0.05 µg/mL (≈ 0.0605 µM); MIC [25]: 0.05 µg/mL (≈ 0.0605 µM); MIC ([26]; Table 1B): 0.015 µg/mL (≈ 0.0181 µM); MIC [27]: 25
CC[C@H]1OC(=O)[C@@](C)(F)C(=O)[C@H](C)[C@@H](O[C@@H]2O[C@H](C)C[C@H](N(C)C)[C@H]2O)[C@](C)(OC/C=C/c2cnc3ccc([N+](=O)[O-])cc3c2)C[C@@H](C)C(=O)[C@H](C)[C@H]2NC(=O)O[C@@]21C [Example 6] | 0.05 | 0.05 (≈ 0.0603 µM) | 100 (≈ 121 µM) | ≤ 0.004 | 0.02 | 0.05 (≈ 0.0603 µM) | 100 (≈ 121 µM) | ≤ 0.005 | 2 (≈ 2.41 µM) | 0.1 | 0.05 (≈ 0.0603 µM) | 0.05 | 0.05 | 0.02 (≈ 0.0241 µM) | 0.05 | 0.39 (≈ 0.47 µM) | 0.01 (≈ 0.0121 µM) | 0.01 (≈ 0.0121 µM) | 0.125 (≈ 0.151 µM) | 25 (≈ 30.2 µM) | MIC [21]: 0.05 µg/mL (≈ 0.0603 µM); MIC [22]: 100 µg/mL (≈ 121 µM); MIC ([23]; Table 1B): 1 µg/mL (≈ 1.21 µM); MIC [24]: 0.05 µg/mL (≈ 0.0603 µM); MIC [25]: 0.1 µg/mL (≈ 0.121 µM); MIC ([26]; Table 1B): ≤ 0.004 µg/mL; MIC [27]: 25
